Work on `CCCCOc1cc(C)c(NC(=O)C(C)Br)c(C)c1` (stereo unspecified) yielded a melting point of 132 to 134 °C. Work on `CNC(=S)N(C)c1ccc(Cl)nc1` yielded a melting point of 87.5 to 88 °C. With `CCCCCCCCCCCCCCCc1cccc(OC)c1C1NC(=O)NC(C)=C1C(=O)OCC` (stereo unspecified) the melting point was 91 to 93 °C. In the case of `CC(=O)NCC#CCn1ccnc1`, the melting point is reported as 93 to 95 °C. With `O=C(NCc1ccccc1)c1ccnc(NC(=O)C2CCCC2)c1` the melting point was 55 to 57 °C. With `CSC1(Cl)C(=O)Nc2ccc(C(F)(F)F)cc21` (stereo unspecified) the melting point was 191 to 193 °C. With `CCn1ncnc1COc1nn2c(-c3c(F)ccc(F)c3F)nncc2c1C(C)(C)C` the melting point was 42 °C. `Cc1nc(N)c2nc(C)n(CCOCC#Cc3ccccc3)c2c1C` showed a melting point of 187 to 188 °C. In the case of `CC(Oc1ccc(-c2cccc(C(N)=O)c2)cc1)C(O)CCc1cccnc1` (stereo unspecified), the melting point is reported as 74 to 76 °C. `Cc1c(-c2cnccn2)ssc1=S` showed a melting point of 164 °C. With `Cc1cc(NC(=O)c2cccc(CCc3cc(Nc4ccccc4)n[nH]3)c2)ccc1C(C)C` the melting point was 150 to 151 °C. Compound `O=c1c2c(cc3n1CCCS3(=O)=O)CCCC2` has a melting point of 232 to 233 °C. With `COc1cc(C=CN(C)C)ccc1[N+](=O)[O-]` the melting point was 57 to 58.5 °C. Work on `Nc1ccc2sc(-c3cccnc3)nc2c1` yielded a melting point of 189 to 196 °C. `C=C1C(=CC=C2CCCC3(C)C2CCCC3C(C)CCCC(C)(C)O)CC(O)CC1O` (stereo unspecified) showed a melting point of 124 to 127 °C. Compound `Oc1ccc(-c2cccc(F)c2F)cc1` has a melting point of 132 to 134 °C. For `Cn1cc(-c2cnc3ccc(Br)cc3n2)cn1`, the melting point was 172 °C. Work on `OCCCOc1ccc(-c2ccccc2)cc1` yielded a melting point of 123 to 124 °C. Work on `CCn1cc(C(=O)NC2Cc3ccccc3C2)c(=O)c2cnc(N3CCCC3)nc21` yielded a melting point of 252 to 253 °C. Compound `N#Cc1cccc2c(Cl)ccc([N+](=O)[O-])c12` has a melting point of 210 to 212 °C. `Cc1ccc(N)c(Cl)c1C#N` showed a melting point of 117 to 119 °C. Work on `N#Cc1cn(-c2cccnc2)nc1-c1ccc([N+](=O)[O-])o1` yielded a melting point of 206 to 207 °C. `O=C1Cc2ccccc2SN(CCO)C1` showed a melting point of 173 to 175 °C. In the case of `Cc1c(CCCC(=O)O)cccc1C(=O)c1ccc(Cl)cc1`, the melting point is reported as 124 °C. Work on `C(=Cc1ccccc1)COc1ccc2c(c1)OCO2` yielded a melting point of 83 °C. `CC(C)c1ccc(O[C@@H](Cc2ccc(OCCNC(=O)c3ccc(-c4ccccn4)cc3)cc2)C(=O)O)cc1` gave a melting point of 100 to 101 °C. `c1ccc(COc2cc(OCC3CCCCC3)ccc2CNc2ccncc2)cc1` showed a melting point of 131 to 132 °C. Work on `CC(=O)NC(=O)CSC(=O)Cc1ccccc1` yielded a melting point of 123 to 124 °C. For `Fc1cccc(F)c1Cn1c(-c2c(F)cccc2F)nc2c(CCl)cccc21`, the melting point was 143 to 144 °C. Work on `COC1(OC)CC(Nc2ncnc3c2ncn3C2OC(CO)C(O)C2O)NC1=O` (stereo unspecified) yielded a melting point of 176 to 178 °C. For `Cc1c(C=O)c2cnnc(OCc3ccccc3)c2n1Cc1ccccc1`, the melting point was 147 to 149 °C. `O=C(c1ccc(F)cc1)c1cc2ccsc2s1` gave a melting point of 113 °C. Work on `O=C1NC(=O)C(c2ccccc2)(c2ccccc2)N2CCN(C(=O)OCc3ccccc3)CC12` (stereo unspecified) yielded a melting point of 151 to 152 °C. With `COC(=O)C(Oc1ccccc1)c1ccc(I)cc1` (stereo unspecified) the melting point was 68 to 71 °C. Work on `O=C(O)CCN(C(=O)Cl)c1cccc(Cl)c1` yielded a melting point of 106 °C. Compound `Cc1nc(N2CCOCC2)c2n1-c1ccc(Cl)cc1C(c1ccccc1F)=NC2` has a melting point of 172 to 174 °C. In the case of `COc1cc(NC(=S)Nc2ccccc2)ccc1NNC=O`, the melting point is reported as 183 to 184 °C. With `CCOC(=O)c1c(N2CCN(C(=O)c3cccs3)CC2)c2cccnc2n(CCN(C)C)c1=O` the melting point was 134 °C. With `Clc1ccc(-c2ccc3nncn3c2)cc1` the melting point was 259 to 262 °C. With `COC(=O)c1nc(-c2ccc(Cl)c(OC)c2F)cc(NC(C)=O)c1C` the melting point was 182 to 184 °C. In the case of `O=C1C(Cl)=C(c2ccccc2)C(=O)c2ccccc21`, the melting point is reported as 111 to 112 °C. Work on `CC(C)C1=CC2=CCC3C(C)(C(=O)N(C)C4CCCCC4)CCCC3(C)C2CC1` (stereo unspecified) yielded a melting point of 130 to 132 °C. Compound `CCN(CC)CCn1c(Cl)c(C(=O)NC)c2ccccc21` has a melting point of 103 to 104 °C. With `Cc1ccc(-c2nc(CCCOS(=O)(=O)c3ccc(C)cc3)c(C(F)(F)F)o2)cc1` the melting point was 57 to 58 °C. For `Cc1ccnc(NC(=O)c2nc3ccccc3[nH]2)c1`, the melting point was 262 °C. Compound `O=c1ccnc(NCCCN(Cc2ccccc2Cl)c2ccccn2)[nH]1` has a melting point of 153 to 154 °C. With `CCOC(=O)c1cc([N+](=O)[O-])c(N)nc1C(=O)OCC` the melting point was 120 to 122 °C. Work on `O=Cc1ccc2c(ccc3cc4ccccc4cc32)c1` yielded a melting point of 144 to 145 °C. Compound `COc1ccc(N2CCN(c3c(C)c(C)c4c(c3C)C(c3ccoc3)C(C)(C)O4)CC2)cc1` (stereo unspecified) has a melting point of 110 to 113 °C. With `O=C(Cc1ccc(Br)cc1)c1ccc(Cl)cc1` the melting point was 123 °C. `COc1ccc(C(C)C)cc1-c1cc(C(=O)NCCc2ccccc2)c(OCc2ccccc2)cc1OCc1ccccc1` gave a melting point of 138 to 140 °C.

From a melting point compilation (Tetko et al.; mined from patent text by program, amines drawn as free bases though some values may be those of a salt)
